pIC50: −log10 of the molar value.
Legend:
[1] = molecular target: Bcl-xL (Homo sapiens (Human), UniProt Q07817); test: Bcl-xL/Bim Fluorescence Resonance Energy Transfer Assay (FRET); assay type: binding
Experimental: Bcl-xL/Bim Fluorescence Resonance Energy Transfer Assay (FRET) The assays were performed in black flat-bottom 384-well plates. The final assay volume was 55 μl prepared from additions of Biotin-Bcl-xL (Bcl-xL: GENBANK® Accession No. […] The reaction was incubated at room temperature for 60 minutes. After 60 minutes, 5 μL of Streptavidin-Terbium FRET detection reagent (Perkin Elmer) was added to the reaction mixture and incubated at room temperature in the dark for 30 mins. […] Compounds were dissolved at 10 mM in dimethylsulfoxide (DMSO) and evaluated at eleven concentrations. IC50 values were derived by non-linear regression analysis.

[2] = molecular target: Bcl-2 (Homo sapiens (Human), UniProt P10415); test: Bcl-2/Bim Fluorescence Polarization Assay (FPA); assay type: binding
Experimental: Bcl-2/Bim Fluorescence Polarization Assay (FPA)
The assays were performed in black flat-bottom 384-well plates. […] The reaction was incubated at room temperature for 60 minutes and fluorescence polarization of the reaction was detected on the LJL Plate Reader. Inhibition data were calculated from mP values generated by the no protein control reactions for 100% inhibition and vehicle-only reactions for 0% inhibition. The final concentrations of reagents in the assay were 4.9 nM BCL-2, 5 nM fluoresceinated 18-mer BIM peptide and 1% DMSO. […] Compounds were dissolved at 10 mM in dimethylsulfoxide (DMSO) and evaluated at eleven concentrations. IC50 values were derived by non-linear regression analysis.

Bcl-xL, sequence (Q07817 whole entry): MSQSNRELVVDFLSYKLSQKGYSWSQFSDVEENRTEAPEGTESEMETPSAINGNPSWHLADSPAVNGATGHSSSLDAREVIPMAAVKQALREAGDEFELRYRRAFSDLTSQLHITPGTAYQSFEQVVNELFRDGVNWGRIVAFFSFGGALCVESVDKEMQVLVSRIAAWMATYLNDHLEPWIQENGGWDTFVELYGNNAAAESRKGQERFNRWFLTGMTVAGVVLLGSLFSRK
Bcl-2, sequence (P10415 whole entry): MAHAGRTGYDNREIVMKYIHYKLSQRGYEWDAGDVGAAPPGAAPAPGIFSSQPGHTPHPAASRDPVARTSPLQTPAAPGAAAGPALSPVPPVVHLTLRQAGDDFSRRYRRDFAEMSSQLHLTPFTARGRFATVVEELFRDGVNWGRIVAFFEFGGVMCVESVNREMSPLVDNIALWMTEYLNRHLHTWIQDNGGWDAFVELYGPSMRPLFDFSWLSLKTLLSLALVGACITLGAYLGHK

## CCCCN(C(=O)c1nn(-c2ccc(C(=O)NS(=O)(=O)c3ccc4ccccc4c3)cc2C(=O)N2CCc3ccccc3C2)c(C)c1Cl)c1ccc(C(=O)OC)cc1 [Example 154, methyl 4-(N-butyl-4-chloro-5-methyl-1-(4-(naphthalen-2-ylsulfonylcarbamoyl)-2-(1,2,3,4-tetrahydroisoquinoline-2-carbonyl)phenyl)-1H-pyrazole-3-carboxamido)benzoate]
[1]
  pIC50: 7.10
[2]
  pIC50: 7.05

## CCCCN(CCCC)C(=O)c1nn(-c2ccc(C(=O)NS(=O)(=O)c3ccc4ccc(OCCCN5CCN(C)CC5)cc4c3)cc2C(=O)N2CCc3ccccc3C2)c(C)c1Cl [Example 35, N,N-dibutyl-4-chloro-5-methyl-1-(4-(7-(3-(4-methylpiperazin-1-yl)propoxy)naphthalen-2-ylsulfonylcarbamoyl)-2-(1,2,3,4-tetrahydroisoquinoline-2-carbonyl)phenyl)-1H-pyrazole-3-carboxamide]
[1]
  pIC50: 7.40
[2]
  pIC50: 6.29

## CCCCN(CCCC)C(=O)c1nn(-c2ccc(C(=O)NS(=O)(=O)c3ccc4c(c3)CCN4C(=O)C3CCCCC3)cc2C(=O)N2CCc3ccccc3C2)c(C)c1Cl [Example 55, N,N-dibutyl-4-chloro-1-(4-(1-(cyclohexanecarbonyl)indolin-5-ylsulfonylcarbamoyl)-2-(1,2,3,4-tetrahydroisoquinoline-2-carbonyl)phenyl)-5-methyl-1H-pyrazole-3-carboxamide]
[1]
  pIC50: 6.64
[2]
  pIC50: 6.60

## CCCCN(CCCC)C(=O)c1nn(-c2ccc(C(=O)NS(=O)(=O)c3ccc4c(c3)CCN4CCSc3ccccc3)cc2C(=O)N2CCc3ccccc3C2)c(C)c1Cl [Example 67, N,N-dibutyl-4-chloro-5-methyl-1-(4-(1-(2-(phenylthio)ethyl)indolin-5-ylsulfonylcarbamoyl)-2-(1,2,3,4-tetrahydroisoquinoline-2-carbonyl)phenyl)-1H-pyrazole-3-carboxamide]
[1]
  pIC50: 7.22
[2]
  pIC50: 7.30

## CCCCN(CCCC)C(=O)c1nn(-c2ccc(C(=O)NS(=O)(=O)c3ccc4ccccc4c3)cc2C(=O)N2Cc3ccccc3C[C@H]2CN)c(C)c1Cl [Example 92, 1-(2-((S)-3-(Aminomethyl)-1,2,3,4-tetrahydroisoquinoline-2-carbonyl)-4-(naphthalen-2-ylsulfonylcarbamoyl)phenyl)-N,N-dibutyl-4-chloro-5-methyl-1H-pyrazole-3-carboxamide]
[1]
  pIC50: 8.00
[2]
  pIC50: 8.08

## CCCN(CCC)c1nn(-c2ccc(C(=O)NS(=O)(=O)c3ccc4ccccc4c3)cc2C(=O)N2Cc3ccccc3C[C@H]2CO)c(C)c1Cl [Example 192, 4-(4-Chloro-3-(dipropylamino)-5-methyl-1H-pyrazol-1-yl)-3-((S)-3-(hydroxymethyl)-1,2,3,4-tetrahydroisoquinoline-2-carbonyl)-N-(naphthalen-2-ylsulfonyl)benzamide]
[1]
  pIC50: 7.52
[2]
  pIC50: 7.22

## CCCCN(CCCC)C(=O)c1nn(-c2ccc(C(=O)NS(=O)(=O)c3ccc4ccccc4c3)cc2C(=O)N2Cc3ccccc3S(=O)(=O)C2)c(C)c1Cl [Example 104, N,N-Dibutyl-4-chloro-1-(2-(1,1-dioxido-3,4-dihydro-2H-benzo[e][1,3]thiazine-3-carbonyl)-4-(naphthalen-2-ylsulfonylcarbamoyl)phenyl)-5-methyl-1H-pyrazole-3-carboxamide]
[1]
  pIC50: 6.89
[2]
  pIC50: 6.36

## CCCCN(CCCC)C(=O)c1nn(-c2ccc(C(=O)NS(=O)(=O)c3ccc4ccc(OC(C)CN(C)C)cc4c3)cc2C(=O)N2CCc3ccccc3C2)c(C)c1Cl (stereo not shown) [Example 37, N,N-dibutyl-4-chloro-1-(4-(7-(1-(dimethylamino)propan-2-yloxy)naphthalen-2-ylsulfonylcarbamoyl)-2-(1,2,3,4-tetrahydroisoquinoline-2-carbonyl)phenyl)-5-methyl-1H-pyrazole-3-carboxamide]
[1]
  pIC50: 8.00
[2]
  pIC50: 6.31

— patent US9346795B2, “Substituted sulfonamides useful as antiapoptotic Bcl inhibitors” (Bristol-Myers Squibb Company, priority 2011, dated 2016)
